Laboratory results from article PMC10080691, “Enzyme-Responsive Double-Locked Photodynamic Molecular Beacon for Targeted Photodynamic Anticancer Therapy” (Journal of the American Chemical Society, 2023).

System: HeLa human cervical carcinoma cells
Assay: Intracellular fluorescence by flow cytometry
Format: cell-based
Details: 2 μM 1 h + 6 h, SB-3CT (10 μM) and CA-074 Me (25 μM) 2 h pretreatment
Protocol: The cells were pretreated with SB-3CT (10 μM) and/or CA-074 Me (25 μM) or simply the neat medium for 2 h, followed by incubation with 1 (2 μM) for a further 1 h. After being rinsed with PBS, the cells were incubated in the medium for a further 6 h. As a negative control, the cells were simply incubated with 14 (2 μM) for 1 h, followed by post-incubation in the medium for 6 h. The fluorescence images of the cells under all these conditions were captured using a confocal laser scanning microscope. […] For the cells with pretreatment with both inhibitors, fluorescence due to 1 could hardly be seen. Similarly, for the cells being incubated with 14, the intracellular fluorescence was negligible. […] Again, for PMB 1, the fluorescence intensity was the highest for the cells without being pretreated with the two inhibitors. […] For HeLa cells being treated with 1, the fluorescence intensity of the native cells (i.e., the dual activated condition) was just 3.2-fold that of the cells under the dual inhibited condition. […]
Confocal Fluorescence Microscopic Studies […]
The cells were then rinsed with PBS twice before being examined with a Leica TCS SP8 high - speed confocal microscope equipped with a 638 nm laser. The fluorescence was monitored at 650−750 nm. The images were digitized and analyzed using a Leica Application Suite X […]

CCN(CC)c1ccc2nc3ccc(/N=N/c4ccc(N(C)CCCNC(=O)OC[C@@H]5[C@@H]6CCc7nnn(CC(=O)NCCCC[C@@H]8NC(=O)CNC(=O)[C@H](CCCCN)NC(=O)[C@H](CCCNC(=N)N)NC(=O)[C@H](C(C)C)NC(=O)CNC(=O)[C@H](CC(C)C)NC(=O)[C@@H]9CCCN9C(=O)[C@H](CCCCN)NC(=O)[C@@H](N)CSCc9cc(COc%10ccc(C%11=C%12C(C)=C(I)C(/C=C/c%13ccc(OCCOCCOCCOC)cc%13)=[N+]%12[B-](F)(F)n%12c(/C=C/c%13ccc(OCCOCCOCCOC)cc%13)c(I)c(C)c%12%11)cc%10)cc(c9)CSC[C@@H](C(N)=O)NC(=O)[C@H](CCCCN)NC(=O)[C@H](CCCCN)NC(=O)CNC(=O)[C@H](CC(C)C)NC(=O)[C@H](Cc9ccccc9)NC(=O)CNC(=O)[C@H](CCCCN)NC(=O)CNC8=O)c7CC[C@@H]65)cc4)cc3[n+](-c3ccccc3)c2c1 [compound 1]
intracellular fluorescence intensity, native cells relative to dual inhibited condition: 3.2 fold
